# From patent publication US10471050B2, “2-OXO-1,2-dihydropyridine-3,5-dicarboxamide compounds as bromodomain inhibitors” (GlaxoSmithKline Intellectual Property (No. 2) Limited, priority 2015, dated 2019)
# Target: T1, BRD4 BD2 (Homo sapiens, UniProt O60885, Y97A)
# T1 construct: BRD4 (1-477) (Y97A) and (Y390A); made in house; host or cells: E. coli (pET15b vector)
# Test: BRD4 BD2 TR-FRET competition assay
# Assay type: binding
# Conditions: average of N recorded values, read-out: BRD4 BD2 IC50 (average value) (converted)
# Method: Bromodomain binding was assessed utilising a time resolved fluorescent resonance energy transfer (TR-FRET) competition assay. To enable this approach a known, high affinity, pan-BET interacting small molecule was labelled with Alexa Fluor® 647, which is a far-red-fluorescent dye (Reference Compound X). Reference Compound X acts as a reporter of bromodomain binding and is the acceptor fluorophore component of the TR-FRET pair. Europium chelate, conjugated to an anti-6*His antibody, was utilised as the donor fluorophore in the TR-FRET pair. […] A TR-FRET signal is generated when the donor and acceptor fluorophores are in close proximity, between 20-80 Å, which is enabled in this assay by binding of Reference Compound X to the bromodomain protein.
# In order to generate a TR-FRET signal, donor fluorophore is excited by a laser at λ337 nm, which subsequently leads to emission at λ618 nm. If the acceptor fluorophore is in close proximity then energy transfer can occur, which leads to emission of Alexa Fluor® 647 at λ665 nm. In the presence of competitor compound, Reference Compound X can be displaced from binding to the bromodomain. If displacement occurs, the acceptor fluorophore is no longer in proximity to the donor fluorophore, which prevents fluorescent energy transfer and, subsequently, a loss of Alexa Fluor® 647 emission at λ665 nm.
# The competition of the compounds of formula (I) with Reference Compound X for binding to the BET family (BRD2, BRD3, BRD4 and BRDT) was assessed using protein truncates spanning both bromodomain 1 (BD1) and bromodomain 2 (BD2). In order to monitor differential binding to either BD1 or BD2, single residue mutations of key tyrosines to alanine were made in the acetyl lysine binding pockets. To validate this approach, a double residue mutant tandem domain protein was produced for each of the BET family members. Utilising a Fluorescence Polarisation approach, binding affinities for each of the single and double mutants for Reference Compound X were determined.
# Final purification was completed by Superdex 200 prep grade size exclusion column. Purified protein was stored at −80° C. in 20 mM HEPES pH 7.5 and 100 mM NaCl.
# All assay components were dissolved in an assay buffer composing of 50 mM HEPES pH7.4, 50 mM NaCl, 5% Glycerol, 1 mM DTT and 1 mM CHAPS. Reference Compound X was diluted, in assay buffer containing 20 nM single mutant, tandem bromodomain protein, to a concentration equivalent to 2*Kd for this bromodomain. The solution containing bromodomain and Reference Compound X was added to dose response dilutions of test compound or DMSO vehicle (a maximum of 0.5% DMSO is used in this assay) in Greiner 384 well black low volume microtitre plates and subsequently incubated for 30 minutes at room temperature. An equal volume of 3 nM of anti-6*His Europium chelate was added to all wells, followed by a further 30 minute incubation at room temperature. TR-FRET was detected using a Perkin Elmer Multimode plate reader, by exciting the donor fluorophore at λ337 nm and subsequently, after a delay of 50 μsecs, measuring emission of the donor and acceptor fluorophores at λ615 nm and λ665 nm, respectively. In order to control these assays, 16 replicates each of uninhibited (DMSO vehicle) and inhibited (10*IC50 concentrations of Example 11 of WO 2011/054846A1) TR-FRET assays were included on every microtitre plate.
# cA four parameter curve fit of the following form was then applied: y=a+((b−a)/(1+(10^x/10^c)^d)
# Where ‘a’ is the minimum, ‘b’ is the Hill slope, ‘c’ is the pIC50 and ‘d’ is the maximum.
row,IC50,SMILES
1,63.1 nM,"CNC(=O)c1cc(C(=O)NCCCc2ncc[nH]2)cn(Cc2ccccc2)c1=O [Example 11, N^5-(3-(1H-Imidazol-2-yl)propyl)-1-benzyl-N^3-methyl-2-oxo-1,2-dihydropyridine-3,5-dicarboxamide]"
2,25.1 nM,"CCNC(=O)c1cc(C(=O)NC)c(=O)n(Cc2cccc3[nH]ccc23)c1 [Example 25, 1-((1H-Indol-4-yl)methyl)-N^5-ethyl-N^3-methyl-2-oxo-1,2-dihydropyridine-3,5-dicarboxamide]"

# Same assay, conditions: single mutant tandem BRD4, read-out: pIC50 in the BRD4 BD2 assay (converted)
row,IC50,SMILES
1,100 to 1000 nM,"CNC(=O)c1cc(C(=O)NCCc2cn[nH]c2)cn(Cc2cccc(C)c2F)c1=O [Example 23, N^5-(2-(1H-Pyrazol-4-yl)ethyl)-1-(2-fluoro-3-methylbenzyl)-N^3-methyl-2-oxo-1,2-dihydropyridine-3,5-dicarboxamide]"
2,100 to 1000 nM,"CNC(=O)c1cc(C(=O)NCCc2ccccn2)cn(Cc2ccccc2)c1=O [Example 10, 1-Benzyl-N^3-methyl-2-oxo-N^5-(2-(pyridin-2-yl)ethyl)-1,2-dihydropyridine-3,5-dicarboxamide]"
3,100 to 1000 nM,"CNC(=O)c1cc(C(=O)NCCC(F)(F)F)cn(Cc2ccccc2)c1=O [Example 7, 1-Benzyl-N^3-methyl-2-oxo-N^5-(3,3,3-trifluoropropyl)-1,2-dihydropyridine-3,5-dicarboxamide]"
4,100 to 1000 nM,"CNC(=O)c1cc(C(=O)NCCc2cnc[nH]2)cn(Cc2ccccc2)c1=O [Example 8, N^5-(2-(1H-Imidazol-5-yl)ethyl)-1-benzyl-N^3-methyl-2-oxo-1,2-dihydropyridine-3,5-dicarboxamide]"
5,100 to 1000 nM,"CCNC(=O)c1cc(C(=O)NC)c(=O)n([C@H](C)c2ccccc2)c1 [Example 16, (R)-N^5-Ethyl-N^3-methyl-2-oxo-1-(1-phenylethyl)-1,2-dihydropyridine-3,5-dicarboxamide]"
6,100 to 1000 nM,"CNC(=O)c1cc(C(=O)NCCC#N)cn(Cc2ccccc2)c1=O [Example 37, 1-Benzyl-N^5-(2-cyanoethyl)-N^3-methyl-2-oxo-1,2-dihydropyridine-3,5-dicarboxamide]"
7,100 to 1000 nM,"CNC(=O)c1cc(C(=O)NCCc2cn[nH]c2)cn(Cc2cccc(OCCO)c2)c1=O [Example 21, N^5-(2-(1H-pyrazol-4-yl)ethyl)-1-(3-(2-hydroxyethoxy)benzyl)-N^3-methyl-2-oxo-1,2-dihydropyridine-3,5-dicarboxamide]"
8,100 to 1000 nM,"CNC(=O)c1cc(C(=O)NCCS(C)(=O)=O)cn(Cc2ccccc2)c1=O [Example 45, 1-Benzyl-N^3-methyl-N^5-(2-(methylsulfonyl)ethyl)-2-oxo-1,2-dihydropyridine-3,5-dicarboxamide]"
9,100 to 1000 nM,"CNC(=O)c1cc(C(=O)NCCCS(C)(=O)=O)cn(Cc2ccccc2)c1=O [Example 48, 1-Benzyl-N^3-methyl-N^5-(3-(methylsulfonyl)propyl)-2-oxo-1,2-dihydropyridine-3,5-dicarboxamide]"
10,≤ 100 nM,"CNC(=O)c1cc(C(=O)NCCc2cn[nH]c2)cn(Cc2cccc3[nH]ccc23)c1=O [Example 26, 1-((1H-Indol-4-yl)methyl)-N^5-(2-(1H-pyrazol-4-yl)ethyl)-N^3-methyl-2-oxo-1,2-dihydropyridine-3,5-dicarboxamide]"
11,100 to 1000 nM,"CNC(=O)c1cc(C(=O)NCCCC#N)cn(Cc2ccccc2)c1=O [Example 36, 1-Benzyl-N^5-(3-cyanopropyl)-N^3-methyl-2-oxo-1,2-dihydropyridine-3,5-dicarboxamide]"
12,100 to 1000 nM,"CNC(=O)c1cc(C(=O)NCCCN(C)C)cn(Cc2ccccc2)c1=O [Example 47, 1-Benzyl-N^5-(3-(dimethylamino)propyl)-N^3-methyl-2-oxo-1,2-dihydropyridine-3,5-dicarboxamide]"
13,≤ 100 nM,"CNC(=O)c1cc(C(=O)NCCc2cn[nH]c2)cn([C@H](C)c2ccccc2)c1=O [Example 15, (R)-N^5-(2-(1H-Pyrazol-4-yl)ethyl)-N^3-methyl-2-oxo-1-(1-phenylethyl)-1,2-dihydropyridine-3,5-dicarboxamide]"
14,100 to 1000 nM,"CCNC(=O)c1cc(C(=O)NC)c(=O)n(Cc2cccc(C)c2)c1 [Example 14, N^5-Ethyl-N^3-methyl-1-(3-methylbenzyl)-2-oxo-1,2-dihydropyridine-3,5-dicarboxamide]"
15,100 to 1000 nM,"CNC(=O)c1cc(C(=O)NCCCO)cn(Cc2ccccc2)c1=O [Example 32, 1-Benzyl-N^5-(3-hydroxypropyl)-N^3-methyl-2-oxo-1,2-dihydropyridine-3,5-dicarboxamide]"
16,100 to 1000 nM,"CNC(=O)c1cc(C(=O)NCCc2c[nH]cn2)cn(Cc2cccc(C)c2F)c1=O [Example 49, N^5-(2-(1H-Imidazol-4-yl)ethyl)-1-(2-fluoro-3-methylbenzyl)-N3-methyl-2-oxo-1,2-dihydropyridine-3,5-dicarboxamide]"
17,≤ 100 nM,"CNC(=O)c1cc(C(=O)NCCc2c[nH]cn2)cn(Cc2cccc3[nH]ccc23)c1=O [Example 24, N^5-(2-(1H-Imidazol-4-yl)ethyl)-1-((1H-indol-4-yl)methyl)-N^3-methyl-2-oxo-1,2-dihydropyridine-3,5-dicarboxamide]"
18,≤ 100 nM,"CNC(=O)c1cc(C(=O)Nc2cnn(C)c2)cn(Cc2ccccc2)c1=O [Example 53, 1-Benzyl-N^3-methyl-N^5-(1-methyl-1H-pyrazol-4-yl)-2-oxo-1,2-dihydropyridine-3,5-dicarboxamide]"
19,1000 to 100000 nM,"CNC(=O)c1cc(C(=O)NCC(C)O)cn(Cc2ccccc2)c1=O (stereo not shown) [Example 31, 1-Benzyl-N^5-(2-hydroxypropyl)-N^3-methyl-2-oxo-1,2-dihydropyridine-3,5-dicarboxamide]"
20,100 to 1000 nM,"CCCCNC(=O)c1cc(C(=O)NC)c(=O)n(Cc2ccccc2)c1 [Example 3, 1-Benzyl-N^5-butyl-N^3-methyl-2-oxo-1,2-dihydropyridine-3,5-dicarboxamide]"
21,100 to 1000 nM,"CCNC(=O)c1cc(C(=O)NC)c(=O)n(Cc2cccc(C)c2F)c1 [Example 22, N^5-Ethyl-1-(2-fluoro-3-methylbenzyl)-N^3-methyl-2-oxo-1,2-dihydropyridine-3,5-dicarboxamide]"
22,100 to 1000 nM,"CNC(=O)c1cc(C(=O)NCCCC(=O)OC)cn(Cc2ccccc2)c1=O [Example 9, Methyl 4-(1-benzyl-5-(methylcarbamoyl)-6-oxo-1,6-dihydropyridine-3-carboxamido)butanoate]"
23,≤ 100 nM,"CNC(=O)c1cc(C(=O)NCCc2cn[nH]c2)cn(Cc2ccccc2)c1=O [Example 12, N^5-(2-(1H-Pyrazol-4-yl)ethyl)-1-benzyl-N^3-methyl-2-oxo-1,2-dihydropyridine-3,5-dicarboxamide]"
24,100 to 1000 nM,"CNC(=O)c1cc(C(=O)NCCC(C)O)cn(Cc2ccccc2)c1=O (stereo not shown) [Example 39, 1-Benzyl-N^5-(3-hydroxybutyl)-N^3-methyl-2-oxo-1,2-dihydropyridine-3,5-dicarboxamide]"
25,100 to 1000 nM,"CNC(=O)c1cc(C(=O)Nc2ccn(C)n2)cn(Cc2ccccc2)c1=O [Example 51, 1-Benzyl-N^3-methyl-N^5-(1-methyl-1H-pyrazol-3-yl)-2-oxo-1,2-dihydropyridine-3,5-dicarboxamide]"
26,100 to 1000 nM,"CNC(=O)c1cc(C(=O)NCCC(C)N(C)C)cn(Cc2ccccc2)c1=O (stereo not shown) [Example 33, 1-Benzyl-N^5-(3-(dimethylamino)butyl)-N^3-methyl-2-oxo-1,2-dihydropyridine-3,5-dicarboxamide]"
27,≤ 100 nM,"CNC(=O)c1cc(C(=O)NCCCc2ncc[nH]2)cn(Cc2ccccc2)c1=O [Example 11, N^5-(3-(1H-Imidazol-2-yl)propyl)-1-benzyl-N^3-methyl-2-oxo-1,2-dihydropyridine-3,5-dicarboxamide]"
28,100 to 1000 nM,"CNC(=O)c1cc(C(=O)NCCCNC(=O)OC(C)(C)C)cn(Cc2ccccc2)c1=O [Example 6, tert-Butyl (3-(1-benzyl-5-(methylcarbamoyl)-6-oxo-1,6-dihydropyridine-3-carboxamido)propyl)carbamate]"
29,≤ 100 nM,"CCNC(=O)c1cc(C(=O)NC)c(=O)n(Cc2cccc3[nH]ccc23)c1 [Example 25, 1-((1H-Indol-4-yl)methyl)-N^5-ethyl-N^3-methyl-2-oxo-1,2-dihydropyridine-3,5-dicarboxamide]"
